From patent publication US20260070899A1, “N-(2-(4-CYANOTHIAZOLIDIN-3-YL)-2-OXOETHYL)-QUINOLINE-4-CARBOXAMIDES” (AstraZeneca AB, priority 2022, published 2026)
Values after ≈ are worked out from the molar mass of the structure shown.

Assays:
Rat Hepatocytes (rHep) = test: Metabolic stability in rat hepatocytes (rHep); format: in vitro ADME; conditions: n = 1 or geometric mean (n = 2-3)
Protocol: Metabolic stability in rat hepatocytes was measured as described in J Comput Aided Mol Des 2015, 29, 795.

[1] = biological target: T1, Prolyl endopeptidase, Prolyl Oligopeptidase (hPREP) (Homo sapiens, UniProt P48147); test: biochemical
T1 sequence (P48147 1-710): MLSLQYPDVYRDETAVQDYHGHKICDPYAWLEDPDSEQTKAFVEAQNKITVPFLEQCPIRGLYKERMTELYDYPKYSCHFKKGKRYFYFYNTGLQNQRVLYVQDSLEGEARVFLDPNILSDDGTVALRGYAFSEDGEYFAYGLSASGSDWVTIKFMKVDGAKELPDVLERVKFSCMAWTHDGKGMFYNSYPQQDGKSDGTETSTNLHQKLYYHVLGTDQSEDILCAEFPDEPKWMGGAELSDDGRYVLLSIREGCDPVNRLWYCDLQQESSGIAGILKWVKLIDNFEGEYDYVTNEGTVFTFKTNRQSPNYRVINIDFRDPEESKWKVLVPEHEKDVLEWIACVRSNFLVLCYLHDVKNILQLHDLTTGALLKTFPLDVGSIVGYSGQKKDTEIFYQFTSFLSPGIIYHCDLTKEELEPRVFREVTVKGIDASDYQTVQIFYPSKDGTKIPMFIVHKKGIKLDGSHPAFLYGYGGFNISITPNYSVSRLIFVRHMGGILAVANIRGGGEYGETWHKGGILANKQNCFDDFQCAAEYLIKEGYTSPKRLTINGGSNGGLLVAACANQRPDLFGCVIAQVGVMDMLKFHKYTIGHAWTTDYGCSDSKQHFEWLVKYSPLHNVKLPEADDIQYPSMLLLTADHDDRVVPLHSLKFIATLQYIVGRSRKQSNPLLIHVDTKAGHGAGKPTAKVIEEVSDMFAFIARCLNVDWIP
Protocol: Compounds were tested in a biochemical inhibition assay using Prolyl endopeptidase, Prolyl Oligopeptidase (hPREP) enzyme at 0.6 nM FAC (R&D Systems, 4308-SE) and the substrate Z-Gly-Pro-amino-methylcoumarin (Bachem, I-1145) at 50 μM FAC. 384 Low volume black plates (Greiner #784076) were used. […] Plates were incubated for 15 min at rt in dark. 4 μL, 100 μM substrate solution (25 mM Tris HCl, 250 mM NaCl, 0.01% Triton X-100, 5 mM Glutathione, pH 7.5) was added to each well. Plates were centrifuged at 1000 rpm and incubated for 20 min at rt in dark. The plates were read on a PHERAstar® reader with excitation 340 nm and emission 460 nm. Data were analyzed in Genedata Screener®. IC50 values were determined by plotting % inhibition versus log compound concentration and using a one site dose response model.

hFAP = biological target: T2, hFAP (Homo sapiens, UniProt Q12884); test: biochemical
T2 sequence (Q12884 38-760): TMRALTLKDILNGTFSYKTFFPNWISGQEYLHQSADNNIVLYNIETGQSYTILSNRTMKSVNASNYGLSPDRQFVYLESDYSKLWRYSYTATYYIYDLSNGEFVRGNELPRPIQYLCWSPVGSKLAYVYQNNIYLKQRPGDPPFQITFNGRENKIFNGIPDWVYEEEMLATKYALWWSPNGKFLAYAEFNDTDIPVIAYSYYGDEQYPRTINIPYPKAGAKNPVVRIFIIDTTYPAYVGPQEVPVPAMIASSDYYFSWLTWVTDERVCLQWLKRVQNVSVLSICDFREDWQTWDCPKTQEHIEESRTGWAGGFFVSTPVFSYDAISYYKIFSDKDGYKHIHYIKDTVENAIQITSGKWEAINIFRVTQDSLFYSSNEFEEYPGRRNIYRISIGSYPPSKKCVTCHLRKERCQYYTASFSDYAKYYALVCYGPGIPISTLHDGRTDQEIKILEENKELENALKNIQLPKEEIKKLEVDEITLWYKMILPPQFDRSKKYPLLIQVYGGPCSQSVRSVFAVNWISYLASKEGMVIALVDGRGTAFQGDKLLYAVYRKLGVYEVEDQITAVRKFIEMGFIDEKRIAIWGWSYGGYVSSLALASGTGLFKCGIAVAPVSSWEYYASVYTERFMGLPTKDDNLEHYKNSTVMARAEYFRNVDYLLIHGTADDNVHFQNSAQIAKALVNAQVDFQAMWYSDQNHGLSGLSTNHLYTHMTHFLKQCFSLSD
Protocol: 384 low volume black plates (Greiner #784076) were used. 4 μL, 0.48 nM enzyme solution (100 mM Tris HCl, 100 mM NaCl, 0.05% Chaps, pH 7.4) was added to 40 nL compounds (in DMSO) at 10 CR, 3 fold dilution series from 50 μM FAC. Plates were incubated for 15 min at rt in dark. 4 μL, 40 μM substrate solution (100 mM Tris HCl, 100 mM NaCl, 0.05% Chaps, pH 7.4) was added to each well. Plates were centrifuged at 1000 rpm and incubated for 30 min at rt in dark. The plates were read on a PHERAstar® reader with excitation 340 nm and emission 460 nm. Data were analyzed in Genedata Screener®. IC50 values were determined by plotting % inhibition versus log compound concentration and using a one site dose response model.

Kinetic solubility = format: physicochemical; conditions: kinetic from dmso stock, n = 1 or average (n = 2-4)
Protocol: Kinetic solubility was measured as described in Comput Aided Mol Des 2015, 29, 795.

[2] = Metabolic stability in human liver microsomes (HLM); format: in vitro ADME; conditions: n = 1 or average (n = 2-3)
Protocol: Metabolic stability in HLM was measured as described in J Comput Aided Mol Des 2015, 29, 795.

hFAP (M39-A757) = biological target: T3, hFAP (M39-A757) (Homo sapiens, UniProt Q12884); test: biochemical
T3 sequence (Q12884 39-757): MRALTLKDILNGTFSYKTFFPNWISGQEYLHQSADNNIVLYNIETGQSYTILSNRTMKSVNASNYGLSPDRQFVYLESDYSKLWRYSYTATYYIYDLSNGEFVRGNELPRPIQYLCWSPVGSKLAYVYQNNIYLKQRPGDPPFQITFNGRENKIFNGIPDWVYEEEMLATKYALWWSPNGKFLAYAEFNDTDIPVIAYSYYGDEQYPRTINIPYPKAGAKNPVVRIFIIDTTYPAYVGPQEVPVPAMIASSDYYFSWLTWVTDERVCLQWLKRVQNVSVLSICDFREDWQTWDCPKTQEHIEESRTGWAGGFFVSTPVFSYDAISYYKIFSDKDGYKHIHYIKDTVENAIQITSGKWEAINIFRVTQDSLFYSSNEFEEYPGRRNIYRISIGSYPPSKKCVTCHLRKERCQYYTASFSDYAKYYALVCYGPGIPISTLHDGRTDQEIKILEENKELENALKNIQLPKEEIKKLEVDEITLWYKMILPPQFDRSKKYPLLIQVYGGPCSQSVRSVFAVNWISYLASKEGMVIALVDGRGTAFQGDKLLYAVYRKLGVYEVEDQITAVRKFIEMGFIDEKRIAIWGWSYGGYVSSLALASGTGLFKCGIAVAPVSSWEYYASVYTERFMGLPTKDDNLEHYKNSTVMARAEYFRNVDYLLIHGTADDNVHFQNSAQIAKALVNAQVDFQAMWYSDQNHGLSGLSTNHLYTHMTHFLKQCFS
Protocol: Compounds were tested in a direct binding assay using 8K surface plasmon resonance biosensor (GE Healthcare) at 20° C. Immobilization of hFAP (M39-A757) on a CMD200M sensor chip (Xantec) was performed using standard amine coupling procedure in immobilization buffer (10 mM HEPES, 150 mM NaCl, 0.05% Tween20, pH 7.4). The surface was washed with 10 mM aq NaOH, 1M NaCl before being activated with EDC/NHS (GE Healthcare), followed by immobilization of hFAP (in 10 mM Acetate pH 5.0). Finally, the surface was deactivated by ethanolamine. Immobilization levels of hFAP were around 4000-6000 RU. The reference spot was treated as described, omitting the injection of hFAP. Compound concentration series were injected over the immobilized protein in increasing concentrations (2-500 nM) using single cycle kinetics in running buffer (20 mM TRIS, 150 mM NaCl, 0.05% Tween20, 1% DMSO, pH 7.4). Interaction models were fitted globally to the experimental traces, enabling determination of kon, koff and Kd.

[3] = Caco-2 bidirectional (ABBA) permeability; format: in vitro ADME; conditions: human
Protocol: Caco-2 cell permeability was measured as described in Mol Pharm 2017, 14, 1601.
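For Kd in this document: surface plasmon resonance direct binding to hFAP amine-coupled on a sensor chip, rising compound concentrations by single cycle kinetics, Kd from global fit of interaction models.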

SMILES	rHeps CLint (Rat Hepatocytes (rHep)) [μL/min/1E6]	IC50 [1] [nM]	IC50 (hFAP) [nM]	solubility (Kinetic solubility) [µM]	microsomal CLint [2] [µL/min/mg]	Kd (hFAP (M39-A757)) [nM]	Papp A→B ([3]; A to B, n = 1 or average (n = 2), read-out: Caco2 Bidirectional (ABBA) A to B Papp) [×10⁻⁶ cm/s]	Papp B→A ([3]; B to A, n = 1 or average (n = 2), read-out: Caco2 Bidirectional (ABBA) B to A Papp) [×10⁻⁶ cm/s]	efflux ratio ([3]; read-out: Caco2 Bidirectional (ABBA) Efflux Ratio)
Cc1cc(Cc2ccc3nccc(C(=O)NCC(=O)N4CSC[C@H]4C#N)c3c2)n(C)n1 [Example 40, (R)—N-(2-(4-Cyanothiazolidin-3-yl)-2-oxoethyl)-6-((1,3-dimethyl-1H-pyrazol-5-yl)methyl)quinoline-4-carboxamide]	21	600	0.25	> 1000	29	0.13			
Cc1cc(Cc2ccc3nccc(C(=O)NCC(=O)N4CSC[C@H]4C#N)c3c2)no1 [Example 42, (R)—N-(2-(4-Cyanothiazolidin-3-yl)-2-oxoethyl)-6-((5-methylisoxazol-3-yl)methyl)quinoline-4-carboxamide]	23	180	0.27	190 (≈ 80.1 µg/mL)	12	0.2			
Cc1ccc(C2(c3ccc4nccc(C(=O)NCC(=O)N5CSC[C@H]5C#N)c4c3)CC2)cn1 [Example 43, (R)—N-(2-(4-Cyanothiazolidin-3-yl)-2-oxoethyl)-6-(1-(6-methylpyridin-3-yl)cyclopropyl)quinoline-4-carboxamide]	78	370	0.094	60 (≈ 27.5 µg/mL)	100	0.39			
N#C[C@@H]1CSCN1C(=O)CNC(=O)c1ccnc2ccc(C3(C#N)CCOCC3)cc12 [Example 59, (R)-6-(4-Cyanotetrahydro-2H-pyran-4-yl)-N-(2-(4-cyanothiazolidin-3-yl)-2-oxoethyl)quinoline-4-carboxamide]	20	430		480 (≈ 209 µg/mL)	30		0.24	21	90
COCCCOc1ccc(-c2ccc3nccc(C(=O)NCC(=O)N4CSC[C@H]4C#N)c3c2)cc1 [Example 72, (R)—N-(2-(4-Cyanothiazolidin-3-yl)-2-oxoethyl)-6-(4-(3-methoxy-propoxy)phenyl)quinoline-4-carboxamide]	18	540	0.2	14 (≈ 6.87 µg/mL)	63	0.013			
CCOC1(c2ccc3nccc(C(=O)NCC(=O)N4CSC[C@H]4C#N)c3c2)CC1 [Example 76, (R)—N-(2-(4-Cyanothiazolidin-3-yl)-2-oxoethyl)-6-(1-ethoxycyclopropyl)quinoline-4-carboxamide]	34	580	1.3	900 (≈ 369 µg/mL)	140	2			

The next compounds have a lower IC50 [1] than those just listed; values first:

rHeps CLint (Rat Hepatocytes (rHep)) [μL/min/1E6]	IC50 [1] [nM]	IC50 (hFAP) [nM]	solubility (Kinetic solubility) [µM]	microsomal CLint [2] [µL/min/mg]	Kd (hFAP (M39-A757)) [nM]	Papp A→B ([3]; A to B, n = 1 or average (n = 2), read-out: Caco2 Bidirectional (ABBA) A to B Papp) [×10⁻⁶ cm/s]	Papp B→A ([3]; B to A, n = 1 or average (n = 2), read-out: Caco2 Bidirectional (ABBA) B to A Papp) [×10⁻⁶ cm/s]	efflux ratio ([3]; read-out: Caco2 Bidirectional (ABBA) Efflux Ratio)	SMILES
12	32	0.52	> 1000	9.8	1.4				N#C[C@@H]1CSCN1C(=O)CNC(=O)c1ccnc2ccc(CF)cc12 [Example 29, (R)—N-(2-(4-cyanothiazolidin-3-yl)-2-oxoethyl)-6-(fluoromethyl)-quinoline-4-carboxamide]
8.7	15	0.43	> 1000	16	0.4				N#C[C@@H]1CSCN1C(=O)CNC(=O)c1ccnc2ccc(C(F)F)cc12 [Example 71, (R)—N-(2-(4-Cyanothiazolidin-3-yl)-2-oxoethyl)-6-(difluoromethyl)-quinoline-4-carboxamide]
44	38	0.59	470 (≈ 172 µg/mL)	58	1.4				N#C[C@@H]1CSCN1C(=O)CNC(=O)c1ccnc2ccc(C3CC3)cc12 [Example 77, (R)—N-(2-(4-Cyanothiazolidin-3-yl)-2-oxoethyl)-6-cyclopropylquinoline-4-carboxamide]
